Measurements: patent US4271161A, “Indane-acetic acid aminoesters, their preparation and their use in therapy” (Hexachimie, priority 1978, dated 1981)

What was measured:
[1] = test system: pain reactions (abdominal writhing) induced by phenylbenzoquinone; assay: phenylbenzoquinone-induced writhing in mice (analgesic action); format: in vivo, male mice (SPF, strain OF1); conditions: for percentage inhibition of pain reactions (abdominal writhing): phenylbenzoquinone i.p. after one hour; for ED50: Mus musculus, po, inhibition of phenylbenzoquinone writhing
Procedure: The products being tested are administered orally (p.o.) to batches of 12 male mice (SPF, strain OF1), weighing 19-20 g. After one hour, 0.3 ml/mouse of a 0.02% strength solution of phenylbenzoquinone is injected intraperitoneally and the number of pain reactions (abdominal writhing) is counted from the 5th to the 10th minute after the latter treatment. The table below gives the percentage inhibition of these reactions.

[2] = test system: mice; assay: toxicity: mortality after intraperitoneal administration in mice; format: in vivo
Source text: In mice, no mortality was observed after intraperitoneal administration up to doses of: […]

| Structure (SMILES) | percentage inhibition of pain reactions (abdominal writhing) ([1]; 8 mg.kg^-1 p.o.) [%] | percentage inhibition of pain reactions (abdominal writhing) ([1]; 16 mg.kg^-1 p.o.) [%] | percentage inhibition of pain reactions (abdominal writhing) ([1]; 32 mg.kg^-1 p.o.) [%] | percentage inhibition of pain reactions (abdominal writhing) ([1]; 64 mg.kg^-1 p.o.) [%] | percentage inhibition of pain reactions (abdominal writhing) ([1]; 128 mg.kg^-1 p.o.) [%] | ED50 [1] [mg/kg] | dose up to which no mortality was observed [2] [mg/kg] | percentage inhibition of pain reactions (abdominal writhing) ([1]; 1 mg.kg^-1 p.o.) [%] | percentage inhibition of pain reactions (abdominal writhing) ([1]; 2 mg.kg^-1 p.o.) [%] | percentage inhibition of pain reactions (abdominal writhing) ([1]; 4 mg.kg^-1 p.o.) [%] |
| --- | --- | --- | --- | --- | --- | --- | --- | --- | --- | --- |
| CC(C(=O)OCCN1CCN(c2cccc(C(F)(F)F)c2)CC1)c1ccc2c(c1)CC(C(C)C)C2 (stereo not drawn) [4 or 6] | 23 | 40 | 67 | 75 | 75 | 25 | 256 |  |  |  |
| CCC1Cc2ccc(C(C)C(=O)OCCN3CCN(c4cccc(C(F)(F)F)c4)CC3)cc2C1 (stereo not drawn) [2 or 5] | 64 | 65 | 82 |  |  | 4 | 512 | 22 | 47 | 59 |
